Experimental data: US20240165276A1, “SELECTIVE LIGANDS FOR TAU AGGREGATES” (KARIN & STEN MORTSTEDT CBD SOLUTIONS AB, priority 2019, published 2024)
Where two headings read alike, the source gives them in different places.

What was measured:
[1] = biological target: recombinant 0N4R Tau fibrils (Homo sapiens (Human), UniProt P10636); experiment: ^3H-THK5117 competition binding to tau fibrils in vitro; settings: for IC50: competition with 3 nM [^3H]-THK5117, 0N4R tau fibrils, 1 h, 22° C., average if run more than once
Chain of recombinant 0N4R Tau fibrils (Homo sapiens (Human), UniProt P10636) (P10636 other isoform, or with tags, fused parts or gaps): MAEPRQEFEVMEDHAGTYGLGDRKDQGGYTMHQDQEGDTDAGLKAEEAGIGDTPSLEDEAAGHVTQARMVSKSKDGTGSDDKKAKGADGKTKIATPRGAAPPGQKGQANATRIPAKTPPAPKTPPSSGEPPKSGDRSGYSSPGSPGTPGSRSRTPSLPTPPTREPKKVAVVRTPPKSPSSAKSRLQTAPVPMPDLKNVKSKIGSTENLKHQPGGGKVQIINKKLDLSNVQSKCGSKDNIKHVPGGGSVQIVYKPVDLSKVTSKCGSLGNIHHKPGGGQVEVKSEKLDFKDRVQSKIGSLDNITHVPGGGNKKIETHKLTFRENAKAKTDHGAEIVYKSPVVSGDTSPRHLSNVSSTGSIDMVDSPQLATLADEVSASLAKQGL
Description: (§1) ^3H-THK5117 Competition Binding to Tau Fibrils In Vitro
(§2) Preparation of recombinant 0N4R Tau fibrils was performed as previously described in Morozova, O. A., Biochemistry (2013), Vol., 52(40), pages 6960-6967. Competition binding experiments to 0N4R Tau fibrils were performed by incubating increasing concentrations [10^−10-10^−6 M] of the Example compounds of the invention, or the known tau specific ligand PBB3 (PBB3 was synthesized as previously described in M. Maruyama, et al, Neuron 2013, 79, 1094-1108) or MK6240 (Novandi Chemistry AB), in the presence of 3 nM of the known tau ligand [^3H]-THK5117 (Novandi Chemistry) and 0.2 mM 0N4R tau fibrils in binding buffer (50 mM Tris-HCl, pH 7.4, 0.1% BSA) for 1 h in the dark, and at 22° C. The incubation was terminated by filtration through a Whatman GF/B glass filter (Whatman International, Kent, UK) using a Brandel cell harvester. The filter was then washed rapidly four times with 3 mL of ice-cold wash buffer (5 mM Tris-HCl, 0.25 mM NaCl, 5% EtOH), and equilibrated for 1 h in scintillation vials containing 5 mL of Ultima Gold scintillation fluid before being analysed using a Liquid Scintillation Analyzer.
(§3) The results are shown in Table 2 in the column labeled “Tau IC50”.
(§4) Relative Selectivity for Tau vs. Aβ
(§5) Relative selectivity for tau compared to Aβ for the exemplified compounds was calculated using the results for the [^3H]-THK5117 tau and [^3H]-AZD2184 Aβ assays described above. The calculated results are shown in Table 2 in the column labeled “Selectivity for tau relative to Aβ”.

[2] = system: recombinant 0N4R Tau fibrils; experiment: as above; settings: calculated from [^3H]-THK5117 tau and [^3H]-AZD2184 Aβ assay results
Description: as §1, §2, §3, §4, §5

Aβ(1-42) amyloid fibrils = Aβ(1-42) amyloid fibrils (Homo sapiens, UniProt P05067); experiment: ^3H-AZD2184 competition binding to Aβ(1-42) fibrils in vitro; settings: competition with [^3H]-AZD2184, Aβ(1-42) amyloid fibrils; average if run more than once
Chain of Aβ(1-42) amyloid fibrils (P05067 672-713 limits assumed): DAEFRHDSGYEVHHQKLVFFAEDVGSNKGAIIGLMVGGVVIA
Description: ^3H-AZD2184 Competition Binding to Aβ(1-42) Fibrils In Vitro
Competition binding experiments to Aβ(1-42) amyloid fibrils were performed as previously described in Jureus, A., et al, Journal of Neurochemistry (2010), Vol. 114, pages 784-794 for the Example compounds of the invention indicated in Table 2, or the known tau specific ligand PBB3 (PBB3 was synthesized as previously described in M. Maruyama, et al, Neuron 2013, 79, 1094-1108).
The results are shown in Table 2 in the column labeled “Aβ IC50”.

[3] = cited from earlier work

Row | Structure (SMILES) | IC50 [1] [nM] | Selectivity for tau relative to Aβ [2] | IC50 (Aβ(1-42) amyloid fibrils) [nM] | binding in the recombinant 4R tau fibrils assay (in words) ([1]; recombinant 4R tau fibrils, [^3H]-THK5117 competition) | radiochemical purity after exposure to fluorescent light ([3]; 1 min after exposure to fluorescent light) [%] | radiochemical purity after exposure to fluorescent light ([3]; from 10 to 60 min after exposure to fluorescent light)
1 | COc1ccc2nc(-c3ccc(N4CCCC(O)C4)nc3)sc2c1 (stereo not shown) [Compound 1, 1-[5-(6-Methoxy-1,3-benzothiazol-2-yl)pyridin-2-yl]piperidin-3-ol] | 4 | 2 | 8 | – | – | –
2 | COc1ccc2nc(-c3ccc(N4CC[C@@H](O)C4)nc3)sc2c1 [Compound 2, (3R)-1-[5-(6-Methoxy-1,3-benzothiazol-2-yl)pyridin-2-yl]pyrrolidin-3-ol] | 18 | 1.2 | 22 | – | – | –
3 | COc1ccc2nc(-c3ccc(N4CC[C@H](O)C4)nc3)sc2c1 [Compound 3, (3S)-1-[5-(6-Methoxy-1,3-benzothiazol-2-yl)pyridin-2-yl]pyrrolidin-3-ol] | 11 | 1 | 11 | – | – | –
4 | OCC1CN(c2ccc(-c3cc4cc(O)ccc4[nH]3)c(F)n2)C1 [Compound 4] | 38 | 1.2 | 47 | – | – | –
5 | OCCC1CN(c2ccc(-c3cc4cc(O)ccc4[nH]3)c(F)n2)C1 [Compound 5] | 7 | 1.6 | 11 | – | – | –
6 | Oc1ccc2[nH]c(-c3ccc(N4CCC[C@@H](O)C4)nc3F)cc2c1 [Compound 6, 2-{2-Fluoro-6-[(3R)-3-hydroxypiperidin-1-yl]pyridin-3-yl}-1H-indol-5-ol] | 1 | 37 | 37 | – | – | –
7 | Oc1ccc2[nH]c(-c3ccc(N4CCC[C@H](O)C4)nc3F)cc2c1 [Compound 7, 2-{2-Fluoro-6-[(3S)-3-hydroxypiperidin-1-yl]pyridin-3-yl}-1H-indol-5-ol] | 9 | 8.9 | 80 | – | – | –
8 | COc1ccc2nc(-c3ccc(N4CC[C@@H](O)[C@H](O)C4)nc3)sc2c1 [Compound 8, (3R,4R)-1-[5-(6-Methoxy-1,3-benzothiazol-2-yl)pyridin-2-yl]piperidine-3,4-diol] | 16 | – | – | – | – | –
9 | COc1ccc2nc(-c3ccc(N4CC[C@@H](CO)[C@H](O)C4)nc3)sc2c1 [Compound 11, (3S,4S)-4-(Hydroxymethyl)-1-[5-(6-methoxy-1,3-benzothiazol-2-yl)pyridin-2-yl]piperidin-3-ol] | 11 | – | – | – | – | –
10 | COc1ccc2nc(-c3ccc(N4C[C@H](O)C[C@H](O)C4)nc3)sc2c1 [Compound 12, (3R,5S)-1-[5-(6-Methoxy-1,3-benzothiazol-2-yl)pyridin-2-yl]piperidine-3,5-diol] | 40 | – | – | – | – | –
11 | COc1ccc2nc(-c3ccc(N4CCC(O)(CO)CC4)nc3)sc2c1 [Compound 14, 4-(Hydroxymethyl)-1-[5-(6-methoxy-1,3-benzothiazol-2-yl)pyridin-2-yl]piperidin-4-ol] | 9 | 7.2 | 65 | – | – | –
12 | OC[C@@H]1CCN(c2ccc(-c3cc4cc(O)ccc4[nH]3)c(F)n2)C[C@H]1O [Compound 18, 2-{2-Fluoro-6-[(3S,4S)-3-hydroxy-4-(hydroxymethyl)piperidin-1-yl]pyridin-3-yl}-1H-indol-5-ol] | 29 | – | – | – | – | –
13 | OCC1(O)CCN(c2ccc(-c3cc4cc(O)ccc4[nH]3)c(F)n2)CC1 [Compound 21, 2-{2-Fluoro-6-[4-hydroxy-4-(hydroxymethyl)piperidin-1-yl]pyridin-3-yl}-1H-indol-5-ol] | 40 | 0.2 | 9 | – | – | –
14 | OCC1CCN(c2ccc(-c3cc4ccc(O)cc4[nH]3)c(F)n2)CC1 [Compound 22, 2-{2-Fluoro-6-[4-(hydroxymethyl)piperidin-1-yl]pyridin-3-yl}-1H-indol-6-ol] | 3 | 1 | 3 | – | – | –
15 | COc1ccc2nc(-c3ccc(N4CC[C@@H](O)[C@@H](O)C4)nc3)sc2c1 [Compound 23, (3S,4R)-1-[5-(6-Methoxy-1,3-benzothiazol-2-yl)pyridin-2-yl]piperidine-3,4-diol] | 6 | – | – | – | – | –
16 | COc1ccc2nc(-c3ccc(N4CC[C@@H](CO)[C@@H](O)C4)nc3)sc2c1 [Compound 24] | 9 | – | – | – | – | –
17 | COc1ccc2nc(-c3ccc(N4C[C@H](O)C[C@@H](O)C4)nc3)sc2c1 [Compound 25, (3R,5R)-1-[5-(6-Methoxy-1,3-benzothiazol-2-yl)pyridin-2-yl]piperidine-3,5-diol] | 62 | – | – | – | – | –
18 | OC[C@@H]1CCN(c2ccc(-c3cc4cc(O)ccc4[nH]3)c(F)n2)C[C@@H]1O [Compound 26] | 48 | – | – | – | – | –
19 | Oc1ccc2[nH]c(-c3ccc(N4CCC[C@@H](O)C4)nc3)cc2c1 [Compound 27, 2-{6-[(3R)-3-Hydroxypiperidin-1-yl]pyridin-3-yl}-1H-indol-5-ol] | 25 | 1.3 | 32 | – | – | –
20 | O[C@@H]1CCCN(c2ccc(-c3cc4cc(OCCF)ccc4[nH]3)cn2)C1 [Compound 28, (3R)-1-{5-[5-(2-Fluoroethoxy)-1H-indol-2-yl]pyridin-2-yl}piperidin-3-ol] | 4 | 2 | 8 | – | – | –
21 | O[C@@H]1CCCN(c2ccc(-c3cc4cc(OCCOCCOCCF)ccc4[nH]3)cn2)C1 [Compound 29, (3R)-1-[5-(5-{2-[2-(2-Fluoroethoxy)ethoxy]ethoxy}-1H-indol-2-yl)pyridin-2-yl]piperidin-3-ol] | 14 | 5.7 | 80 | – | – | –
22 | Oc1ccc2[nH]c(-c3cnc(N4CCC[C@@H](O)C4)nc3)cc2c1 [Compound 30, 2-{2-[(3R)-3-Hydroxypiperidin-1-yl]pyrimidin-5-yl}-1H-indol-5-ol] | 150 | 0.6 | 90 | – | – | –
23 | O[C@@H]1CCCN(c2ncc(-c3cc4cc(OCCF)ccc4[nH]3)cn2)C1 [Compound 31, (3R)-1-{5-[5-(2-Fluoroethoxy)-1H-indol-2-yl]pyrimidin-2-yl}piperidin-3-ol] | 10 | 1.2 | 12 | – | – | –
24 | O[C@@H]1CCCN(c2ncc(-c3cc4cc(OCCOCCOCCF)ccc4[nH]3)cn2)C1 [Compound 32, (3R)-1-[5-(5-{2-[2-(2-Fluoroethoxy)ethoxy]ethoxy}-1H-indol-2-yl)pyrimidin-2-yl]piperidin-3-ol] | 89 | 0.3 | 25 | – | – | –
25 | COC(=O)C1CN(c2ccc(-c3cc4cc(O)ccc4[nH]3)c(F)n2)C1 [Compound 33, Methyl 1-[6-Fluoro-5-(5-hydroxy-1H-indol-2-yl)pyridin-2-yl]azetidine-3-carboxylate] | 6 | – | – | – | – | –
26 | Nc1c(F)ccc2cnc(-n3ccc4ccncc43)cc12 [MK-6420, reference compound] | > 1000 | – | – | inactive | – | –
27 | CNc1ccc(/C=C/C=C/c2nc3ccc(O)cc3s2)cn1 [PBB3, reference compound] | 7 | 4 | 28 | – | – | –
28 | CNc1ccc(/C=C/C=C/c2nc3ccc(O)cc3s2)cn1 [^11C-PBB3] | – | – | – | – | 77 | approximately 50%
